These compounds were tested against T1, human mGlu5a receptor (Homo sapiens, UniProt P41594) (assay: mGlu5a receptor binding, displacement of [3H]MPEP). Conditions: competing radioligand [3H]MPEP; human mGlu5a receptor transiently transfected into EBNA cells; Ki=IC50/1+L/Kd.
T1 construct: expressed in transfected cells; host or cells: EBNA cells (transient transfection); membranes prepared from them
T1 sequence (P41594 21-1180 isoform P41594-2 limits assumed): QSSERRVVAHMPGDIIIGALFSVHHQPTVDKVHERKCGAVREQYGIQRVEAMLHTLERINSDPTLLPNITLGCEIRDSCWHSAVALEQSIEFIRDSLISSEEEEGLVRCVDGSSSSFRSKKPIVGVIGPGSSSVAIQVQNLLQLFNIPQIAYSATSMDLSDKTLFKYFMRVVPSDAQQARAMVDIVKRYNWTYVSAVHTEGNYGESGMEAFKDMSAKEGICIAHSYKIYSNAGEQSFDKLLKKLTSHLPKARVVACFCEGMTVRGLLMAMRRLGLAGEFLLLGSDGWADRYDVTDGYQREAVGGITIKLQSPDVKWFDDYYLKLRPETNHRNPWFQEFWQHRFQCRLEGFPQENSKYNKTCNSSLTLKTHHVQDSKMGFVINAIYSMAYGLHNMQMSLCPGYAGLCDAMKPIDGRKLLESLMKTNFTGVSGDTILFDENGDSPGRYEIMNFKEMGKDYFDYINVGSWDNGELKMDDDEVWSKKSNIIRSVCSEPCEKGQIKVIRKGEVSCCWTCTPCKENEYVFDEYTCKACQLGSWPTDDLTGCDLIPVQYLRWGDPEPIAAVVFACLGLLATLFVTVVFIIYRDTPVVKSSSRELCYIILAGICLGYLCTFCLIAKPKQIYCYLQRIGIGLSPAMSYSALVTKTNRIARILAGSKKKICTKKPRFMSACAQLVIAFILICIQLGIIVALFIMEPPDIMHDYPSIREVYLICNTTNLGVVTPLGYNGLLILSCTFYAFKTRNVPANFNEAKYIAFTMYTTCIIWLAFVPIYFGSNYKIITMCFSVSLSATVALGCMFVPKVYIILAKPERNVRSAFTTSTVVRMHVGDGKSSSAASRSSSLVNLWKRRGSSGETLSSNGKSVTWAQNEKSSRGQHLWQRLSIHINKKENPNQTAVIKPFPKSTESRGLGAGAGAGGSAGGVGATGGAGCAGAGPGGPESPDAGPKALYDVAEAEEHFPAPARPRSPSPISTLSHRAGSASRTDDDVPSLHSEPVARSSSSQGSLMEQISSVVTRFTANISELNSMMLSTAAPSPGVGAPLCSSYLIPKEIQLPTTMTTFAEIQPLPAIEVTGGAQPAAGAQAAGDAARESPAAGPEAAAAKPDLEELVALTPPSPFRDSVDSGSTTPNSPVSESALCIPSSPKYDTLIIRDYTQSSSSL
Method: For binding experiments, cDNA encoding human mGlu5a receptor was transiently transfected into EBNA cells using a procedure described by E.-J. Schlaeger and K. Christensen (Cytotechnology 1998, 15, 1-13). For functional assays, [Ca^2+]i measurements were performed largely as described previously (Porter et al., Br J. Pharmacol 1999, 128, 13-20) on stably expressed recombinant human mGlu 5a receptors in HEK-293 cells. The cells were dye loaded using Fluo 4-AM (purchased from Molecular Probes, 2 μM final concentration) [Ca^2+]i measurements were performed using a fluorometric imaging plate reader (FLIPR, Molecular Devices Corporation, La Jolla, Calif., USA). Antagonist evaluation was performed following a 5 minute preincubation with the test compounds followed by the addition of a submaximal addition of agonist.
The inhibition (antagonists) curves were fitted with a four parameter logistic equation giving IC50, and Hill coefficient using the iterative non linear curve fitting software Xcel fit.
The Ki values of the compounds tested are given. The Ki value is defined by the following formula: Ki=IC50/1+L/Kd in which the IC50 values are those concentrations of the compounds tested in which causes 50% inhibition of the competing radioligand ([^3H]MPEP). [L] is the concentration of radioligand used in the binding experiment and the Kd value of the radioligand is empiracally determined for each batch of membranes prepared.
`Cc1nc(C#Cc2ccnc(Cl)c2)c(C)n1-c1cc[nH]c(=O)c1` [Example 35, 4-[4-(2-chloro-pyridin-4-ylethynyl)-2,5-dimethyl-imidazol-1-yl]-1H-pyridin-2-one] was tested, and the Ki was 347 nM. Compound `Cc1nc(C#Cc2cccc(Cl)c2)cn1-c1ccn(C)c(=O)c1` [Example 2, 4-[4-(3-chloro-phenylethynyl)-2-methyl-imidazol-1-yl]-1-methyl-1H-pyridin-2-one] has a Ki of 69 nM. In the case of `Cc1nc(C#Cc2ccnc(Cl)c2)cn1-c1cccc(=O)n1C` [Example 18, 6-[4-(2-chloro-pyridin-4-ylethynyl)-2-methyl-imidazol-1-yl]-1-methyl-1H-pyridin-2-one], the Ki is reported as 559 nM. In the case of `CCn1ccc(-n2cc(C#Cc3cccc(C)c3)nc2C)cc1=O` [Example 10, 1-Ethyl-4-(2-methyl-4-m-tolylethynyl-imidazol-1-yl)-1H-pyridin-2-one], the Ki is reported as 75 nM. In the case of `COCCn1ccc(-n2c(C)nc(C#Cc3cccc(C)c3)c2C)cc1=O` [Example 34, 4-[2,5-dimethyl-4-m-tolylethynyl-imidazol-1-yl]-1-(2-methoxy-ethyl)-1H-pyridin-2-one], the Ki is reported as 87 nM. `Cc1cccc(C#Cc2cn(-c3ccn(C)c(=O)c3)c(C)n2)c1` [Example 9, 1-Methyl-4-(2-methyl-4-m-tolylethynyl-imidazol-1-yl)-1H-pyridin-2-one] showed a Ki of 42 nM. `COCCn1ccc(-n2cc(C#Cc3cccc(Cl)c3)nc2C)cc1=O` [Example 5, 4-[4-(3-chloro-phenylethynyl)-2-methyl-imidazol-1-yl]-1-(2-methoxy-ethyl)-1H-pyridin-2-one] was tested, and the Ki was 44 nM. For `Cc1nc(C#Cc2ccnc(Cl)c2)c(C)n1-c1cc(=O)n(C)cn1` [Example 46, 6-[4-(2-chloro-pyridin-4-ylethynyl)-2,5-dimethyl-imidazol-1-yl]-3-methyl-3H-pyrimidin-4-one], the Ki was 569 nM. `Cc1cccc(C#Cc2nc(C)n(-c3cc[nH]c(=O)c3)c2C)c1` [Example 30, 4-(2,5-dimethyl-4-m-tolylethynyl-imidazol-1-yl)-1H-pyridin-2-one] gave a Ki of 211 nM. `CCOC(=O)Cn1ccc(-n2cc(C#Cc3cccc(C)c3)nc2C)cc1=O` [Example 13, [4-(2-Methyl-4-m-tolylethynyl-imidazol-1-yl)-2-oxo-2H-pyridin-1-yl]-acetic acid ethyl ester] was tested, and the Ki was 94 nM. `Cc1nc(C#Cc2cccc(Cl)c2)cn1-c1ccn(CCO)c(=O)c1` [Example 4, 4-[4-(3-chloro-phenylethynyl)-2-methyl-imidazol-1-yl]-1-(2-hydroxy-ethyl)-1H-pyridin-2-one] showed a Ki of 345 nM. Compound `CCn1ccc(-n2c(C)nc(C#Cc3cccc(C)c3)c2C)cc1=O` [Example 32, 4-[2,5-dimethyl-4-m-tolylethynyl-imidazol-1-yl]-1-ethyl-1H-pyridin-2-one] has a Ki of 46 nM. Compound `Cc1nc(C#Cc2cccc(Cl)c2)cn1-c1cncc(=O)[nH]1` [Example 16, 6-[4-(3-chloro-phenylethynyl)-2-methyl-imidazol-1-yl]-1H-pyrazin-2-one] has a Ki of 659 nM.
